Assay results from patent US20190151312A1, “HEPARAN SULFATE BIOSYNTHESIS INHIBITORS FOR THE TREATMENT OF DISEASES” (BioMarin Pharmaceutical Inc., priority 2014, published 2019).

Test system: GM01896 cells (MPS II dermal fibroblasts)
Assay: Assay 1: MPS cellular assay, MPS II (heparan sulfate disaccharide biomarkers by LC-MS)
Format: cell-based, human
Conditions: Homo sapiens, Fibroblast, Assay 1 for MPS II, heparan sulfate disaccharide biomarkers (I2a4, I2a6, I2S0 and/or I2S6), read-out: IC50 Range
Procedure: Dermal fibroblasts from humans with an MPS disorder and from healthy donors are grown. Cells are expanded and kept in culture for analysis. Human foreskin fibroblasts can be obtained from the American Type Culture Collection (CRL-1634). Human dermal fibroblasts derived from biopsies of individuals are purchased from Coriell Institute: clinically healthy individuals, GM00408, GM00409, GM00200 (clinically unaffected sibling of an individual with metachromatic leukodystrophy), GM05659, GM08398, and GM15871 (clinically unaffected sibling of an individual with unclassified Ehlers-Danlos syndrome); heterozygous MPS I carriers, GM01392, GM01393 and GM0003; homozygous individuals affected with MPS I, GM06214, GM11495, GM00034, GM01391 and GM01256; individuals with MPS II, GM01896, GM03181, GM00615 and GM00298; individuals with MPS IIIA, GM00879, GM00643, GM00934, GM06110 and GM00629; MPS IIIB, GM01426; MPS IIIC, GM05157; MPS IIID, GM05093; and MPS VII, GM00121. All cells are grown in DMEM containing 50 U ml-1 penicillin, […] ml-1 streptomycin, 2 mM glutamine and 10% FBS. Cells are seeded on 15-cm-diameter tissue culture dishes, grown to confluence and maintained in culture for analysis. Sulfamidase activity in cell extracts is measured with 4-methylumbelliferyl-α-D-N-sulfoglucosaminide according the vendors instructions substituting Tris-acetate buffer (pH 6.5; Moscerdam).
Cells are treated with a compound of the invention at a concentration at or below 30 μM for 4 to 21 days. Cell monolayers are washed with phosphate buffered saline and detached by treatment with GIBCO trypsin-EDTA solution (Invitrogen). After centrifugation, the supernatant is removed and the cells are lysed in 0.5 mL of 0.1 N sodium hydroxide. The amount of protein is determined by bicinchoninic acid (BCA assay, Thermo Scientific). GAGs are isolated by anion exchange chromatography and digested with glycosaminoglycan lyases (heparinases I, II, and III, IBEX).
Enzymatically depolymerized GAG preparations are differentially mass labeled by reductive amination with [^12C6]aniline. Briefly, heparan sulfate disaccharides (1-10 pmol) are dried down in a centrifugal evaporator and reacted with [^12C6]aniline or [^13C6]aniline (15 μL, 165 μmol) and 15 μL of 1 M NaCNBH3 (Sigma-Aldrich) freshly prepared in dimethylsulfoxide/acetic acid (7:3, v/v) is added to each sample. Reactions are carried out at 37° C. for 16 h and then dried in a centrifugal evaporator. Unsubstituted amines are reacted with propionic anhydride (Sigma-Aldrich). Dried samples are reconstituted in 20 μL of 50% methanol, and 3 μL of propionic anhydride (Sigma-Aldrich, 23.3 μmol) is added. Reactions are carried out at ˜23° C. for 2 h. Acylated disaccharides are subsequently aniline tagged as described above. Each sample is mixed with commercially available standard unsaturated disaccharides (Seikagaku), standard N-sulfoglucosamine, glucosamine-6-sulfate, N-acetylgalactosamine-4-sulfate and N-acetylgalactosamine-6-sulfate (Sigma-Aldrich), and/or synthesized α-L-idopyranosyluronate-(1,4)-2-N-acetyl-2-deoxy-α/β-D-glucopyranoside (I0S0). All standards are tagged with [^13C6]aniline (Sigma-Aldrich). Samples are then analyzed by LC-MS using an LTQ Orbitrap Discovery electrospray ionization mass spectrometer (Thermo Scientific) equipped with quaternary HPLC pump (Finnigan Surveyor MS pump) and a reverse-phase capillary column as described in J. Biol. Chem. 2008, 283(48), 33674.
MPS II: Assay 1, as described above, was used to determine activity for MPS II using GM01896 cells. […] Extracted ion chromatograms were obtained. Cell viability was monitored using alamar blue or ATP quantification. IC50's were calculated using curve fitting within the ChemInnovation CBIS database system.

| SMILES | IC50 [nM] |
| --- | --- |
| CNC(=O)c1ccc(Nc2cc(-c3ccc4cn(CCN(C)C)nc4c3)nc(N3CCOCC3)n2)cc1 [{4-[(6-{2-[2-(dimethylamino)ethyl](2H-indazol-6-yl)}-2-morpholin-4-ylpyrimidin-4-yl)amino]phenyl}-N-methylcarboxamide] | < 500 |
| Clc1ccc(Nc2cc(-c3ccc4cnn(CCN5CCOCC5)c4c3)nc(N3CCOCC3)n2)cc1 [(4-chlorophenyl){2-morpholin-4-yl-6-[1-(2-morpholin-4-ylethyl)(1H-indazol-6-yl)]pyrimidin-4-yl}amine] | 500 to 1000 |
| Clc1ccc(Nc2cc(-c3ccc4ncn(C5COC5)c4c3)nc(N3CCOCC3)n2)cc1 [(4-chlorophenyl)[2-morpholin-4-yl-6-(1-oxetan-3-ylbenzimidazol-6-yl)pyrimidin-4-yl]amine] | < 500 |
| CNC(=O)c1ccc(Nc2cc(-c3ccc4ncn(C5CC5)c4c3)nc(N3CCOCC3)n2)cc1 [(4-{[6-(1-cyclopropylbenzimidazol-6-yl)-2-morpholin-4-ylpyrimidin-4-yl]amino}phenyl)-N-methylcarboxamide] | < 500 |
| Cc1nc2cc(-c3cc(Nc4ccc(Cl)cc4)nc(N4CCOCC4)n3)ccc2n1C1CCC1 [(4-chlorophenyl)[6-(1-cyclobutyl-2-methylbenzimidazol-5-yl)-2-morpholin-4-ylpyrimidin-4-yl]amine] | 1000 to 5000 |
| COCCNc1nc2ccc(-c3cc(Nc4ccc(Cl)cc4)nc(N4CCOCC4)n3)cc2n1C [(4-chlorophenyl)(6-{2-[(2-methoxyethyl)amino]-1-methylbenzimidazol-6-yl}-2-morpholin-4-ylpyrimidin-4-yl)amine] | 500 to 1000 |
| Cc1nn(C)c2cc(-c3cc(Nc4ccc(-c5cccn5C)cc4)nc(N4CCOCC4)n3)ccc12 [[6-(1,3-dimethyl(1H-indazol-6-yl))-2-morpholin-4-ylpyrimidin-4-yl][4-(1-methylpyrrol-2-yl)phenyl]amine] | 500 to 1000 |
| Cn1nc(NCCCN2CCCC2)c2ccc(-c3cc(Nc4ccc(Cl)cc4)nc(N4CCOCC4)n3)cc21 [(4-chlorophenyl)(6-{1-methyl-3-[(3-pyrrolidinylpropyl)amino](1H-indazol-6-yl)}-2-morpholin-4-ylpyrimidin-4-yl)amine] | 1000 to 5000 |
| Cn1ncc2ccc(-c3cc(Nc4ccc(-c5c[nH]cn5)cc4)nc(N4CCOCC4)n3)cc21 [(4-imidazol-4-ylphenyl)[6-(1-methyl(1H-indazol-6-yl))-2-morpholin-4-ylpyrimidin-4-yl]amine] | 500 to 1000 |
| CN(C)CCc1nc2cc(Cc3cc(Nc4ccc(Cl)cc4)nc(N4CCOCC4)n3)ccc2[nH]1 [[2-(6-{6-[(4-chlorophenyl)amino]-2-morpholin-4-ylpyrimidin-4-yl}methylbenzimidazol-2-yl)ethyl]dimethylamine] | < 500 |
| Cn1c(CCCN2CCOCC2)nc2ccc(-c3cc(Nc4ccc(Cl)cc4)nc(N4CCOCC4)n3)cc21 [(4-chlorophenyl){6-[1-methyl-2-(3-morpholin-4-ylpropyl)benzimidazol-6-yl]-2-morpholin-4-ylpyrimidin-4-yl}amine] | 1000 to 5000 |
| Cn1ncc2ccc(-c3cc(Nc4ccc(NS(C)(=O)=O)cc4)nc(N4CCOCC4)n3)cc21 [(4-{[6-(1-methyl(1H-indazol-6-yl))-2-morpholin-4-ylpyrimidin-4-yl]amino}phenyl)(methylsulfonyl)amine] | 500 to 1000 |
| Clc1ccc(Nc2cc(-c3cccc4[nH]cnc34)nc(N3CCOCC3)n2)cc1 [6-(1H-benzo[d]imidazol-4-yl)-N-(4-chlorophenyl)-2-morpholinopyrimidin-4-amine] | 500 to 1000 |
| Cn1ncc2ccc(-c3cc(Nc4ccc(-c5nnc[nH]5)cc4)nc(N4CCOCC4)n3)cc21 [(4-(4H-1,2,4-triazol-3-yl)phenyl)[6-(1-methyl(1H-indazol-6-yl))-2-morpholin-4-ylpyrimidin-4-yl]amine] | < 500 |
| Cn1ncc2ccc(-c3cc(Nc4ccc(-c5nnc(C(F)(F)F)[nH]5)cc4)nc(N4CCOCC4)n3)cc21 [[6-(1-methyl(1H-indazol-6-yl))-2-morpholin-4-ylpyrimidin-4-yl]{4-[5-(trifluoromethyl)(4H-1,2,4-triazol-3-yl)]phenyl}amine] | 1000 to 5000 |
| COc1cc(Nc2cc(-c3ccc4cnn(C)c4c3)nc(N3CCOCC3)n2)ccn1 [(2-methoxy(4-pyridyl))[6-(1-methyl(1H-indazol-6-yl))-2-morpholin-4-ylpyrimidin-4-yl]amine] | 500 to 1000 |
| Cn1nc(CCN2CCOCC2)c2ccc(-c3cc(Nc4ccc(-c5c[nH]cn5)cc4)nc(N4CCOCC4)n3)cc21 [(4-imidazol-4-ylphenyl){6-[1-methyl-3-(2-morpholin-4-ylethyl)(1H-indazol-6-yl)]-2-morpholin-4-ylpyrimidin-4-yl}amine] | 1000 to 5000 |
| CNC(=O)c1ccc(Nc2cc(-c3ccc4cnn(C5CC5)c4c3)nc(N3CCOCC3)n2)cn1 [(5-{[6-(1-cyclopropyl(1H-indazol-6-yl))-2-morpholin-4-ylpyrimidin-4-yl]amino}(2-pyridyl))-N-methylcarboxamide] | < 500 |
| Cn1ncc2ccc(-c3cc(Nc4ccc(Cl)cc4)nc(N4CCOCC4)n3)nc21 [(4-chlorophenyl)[6-(1-methylpyrazolo[4,5-e]pyridin-6-yl)-2-morpholin-4-ylpyrimidin-4-yl]amine] | 1000 to 5000 |
| CNC(=O)c1ccc(Nc2cc(-c3ccc4c(c3)ncn4CC3CC3)nc(N3CCOCC3)n2)cn1 [[5-({6-[1-(cyclopropylmethyl)benzimidazol-5-yl]-2-morpholin-4-ylpyrimidin-4-yl}amino)(2-pyridyl)]-N-methylcarboxamide] | 500 to 1000 |
| CNC(=O)c1ccc(Nc2cc(-c3ccc4nc(C)n(CC5CC5)c4c3)nc(N3CCOCC3)n2)cc1 [[4-({6-[1-(cyclopropylmethyl)-2-methylbenzimidazol-6-yl]-2-morpholin-4-ylpyrimidin-4-yl}amino)phenyl]-N-methylcarboxamide] | < 500 |
| Cc1nc2ccc(-c3cc(Nc4ccc(Cl)cc4)nc(N4CCOCC4)n3)cc2n1CCN1CCOCC1 [(4-chlorophenyl){6-[2-methyl-1-(2-morpholin-4-ylethyl)benzimidazol-6-yl]-2-morpholin-4-ylpyrimidin-4-yl}amine] | 500 to 1000 |
| Cc1nn(C)c2cc(-c3cc(Nc4ccc5cc[nH]c5c4)nc(N4CCOCC4)n3)ccc12 [[6-(1,3-dimethyl(1H-indazol-6-yl))-2-morpholin-4-ylpyrimidin-4-yl]indol-6-ylamine] | 500 to 1000 |
| Clc1ccc(Nc2cc(-c3ccc4cnn(C5CC5)c4c3)nc(N3CCOCC3)n2)cc1 [(4-chlorophenyl)[6-(1-cyclopropyl(1H-indazol-6-yl))-2-morpholin-4-ylpyrimidin-4-yl]amine] | 1000 to 5000 |
| Cc1nn(C)c2cc(-c3cc(Nc4ccc(-c5ncco5)cc4)nc(N4CCOCC4)n3)ccc12 [[6-(1,3-dimethyl(1H-indazol-6-yl))-2-morpholin-4-ylpyrimidin-4-yl](4-(1,3-oxazol-2-yl)phenyl)amine] | 500 to 1000 |
| COCCn1cnc2ccc(-c3cc(Nc4ccc(C(=O)OC)cc4)nc(N4CCOCC4)n3)cc21 [methyl 4-({6-[1-(2-methoxyethyl)benzimidazol-6-yl]-2-morpholin-4-ylpyrimidin-4-yl}amino)benzoate] | < 500 |
| Cn1ccnc1-c1ccc(Nc2cc(-c3ccc4cnn(C)c4c3)nc(N3CCOCC3)n2)cc1 [[6-(1-methyl(1H-indazol-6-yl))-2-morpholin-4-ylpyrimidin-4-yl][4-(1-methylimidazol-2-yl)phenyl]amine] | 500 to 1000 |
